Measurements reported in patent US8476197B2, “Aminopropenoates as fungicides” (priority 2009, dated 2013).
Marks after values point to notes of the source that are not given here.

conditions: pH 2.3

Row | Log P | Compound
1 | 2.74 | CC(C)C(C)NC(=C(C#N)C(=O)NC1CC1)c1cccnc1Cl (centres unmarked) [Compound 1451]
2 | 3.22^[c]; 3.22^[b] | CC(C)C(C)NC(=C(C#N)C(=O)NC1CSC1)c1cccnc1Cl (centres unmarked) [Compound 1452]
3 | 3.44^[c]; 3.44^[b] | CC(C)C(C)NC(=C(C#N)C(=O)NC1CCC1)c1cccnc1Cl (centres unmarked) [Compound 1453]
4 | 2.24 | CC(C)C(C)NC(=C(C#N)C(=O)NC1COC1)c1cccnc1Cl (centres unmarked) [Compound 1455]
5 | 2.83^[c]; 2.83^[b] | CC(C)C(C)NC(=C(C#N)C(=O)NC1CC1F)c1cccnc1Cl (centres unmarked) [Compound 1456]
6 | 4.23 | CCOC(=O)C(C#N)=C(NC(C)C(C)C)c1cccnc1-c1ccc(C(F)(F)F)cc1 (centres unmarked) [Compound 1457]
7 | 2.66 | C=CCONC(=O)C(C#N)=C(NC(C)C(C)C)c1cccnc1Cl (centres unmarked) [Compound 1461]
8 | 2.28 | CC(C)C(C)NC(=C(C#N)C(=O)NC1CS(=O)(=O)C1)c1cccnc1Cl (centres unmarked) [Compound 1469]
9 | 3.54 | CCOC(=O)C(C#N)=C(NC(C)C(C)C)c1cccnc1-c1ccc(OC)cc1 (centres unmarked) [Compound 1472]
10 | 3.7^[c]; 3.7^[b] | CCOC(=O)C(C#N)=C(NC(C)C(C)C)c1cccnc1-c1cccs1 (centres unmarked) [Compound 1505]

Row | Compound | Log P
11 | CCONC(=O)C(C#N)=C(NC(C)C(C)C)c1cccnc1Cl (centres unmarked) [Compound 1454] | 2.44^[c]; 2.44^[b]
12 | C=CCNC(=O)C(C#N)=C(NC(C)C(C)C)c1cccnc1Cl (centres unmarked) [Compound 1458] | 3^[c]; 3^[b]
13 | CCOC(=O)C(C#N)=C(NC(C)C(C)C)c1cccnc1 (centres unmarked) [Compound 1504] | 2.61

same assay, conditions: pH 2.7

Row | Log P | Compound
14 | 3.8^[a] | CCOC(=O)C(C#N)=C(NC(CC(C)C)C(F)(F)F)c1cn(C)nc1C(F)F (centres unmarked) [Compound 1417]
15 | 1.79^[a] | CCOC(=O)C(C#N)=C(NC1CCS(=O)(=O)C1)c1cn(C)nc1C(F)F (centres unmarked) [Compound 1420]
16 | 2.96^[a] | CCOC(=O)C(C#N)=C(NC(C)(C)CC)c1cn(C)nc1C(F)F [Compound 1421]
17 | 2.76^[a] | CCOC(=O)C(C#N)=C(NC(C#N)C(C)C)c1cn(C)nc1C(F)F (centres unmarked) [Compound 1422]
18 | 2.04^[a] | CCOC(=O)C(C#N)=C(NCC1(C)COC1)c1cn(C)nc1C(F)F [Compound 1423]
19 | 3.53^[a] | CCCC(NC(=C(C#N)C(=O)OCC)c1cn(C)nc1C(F)F)C(F)(F)F (centres unmarked) [Compound 1424]
20 | 3.67^[a] | CCOC(=O)C(C#N)=C(Nc1cc(C(F)(F)F)ccc1SC)c1cn(C)nc1C(F)F [Compound 1426]
21 | 3.25^[a] | CCOC(=O)C(C#N)=C(Nc1ccccc1C(O)(C(F)(F)F)C(F)(F)F)c1cn(C)nc1C(F)F [Compound 1427]
22 | 3.37^[a] | CCOC(=O)C(C#N)=C(NC(CC(F)(F)F)c1ccccc1)c1cn(C)nc1C(F)F (centres unmarked) [Compound 1428]
23 | 2.11^[a] | CCOC(=O)C(C#N)=C(NCC1(C)COC1)c1cccnc1Cl [Compound 1429]
24 | 4.06^[a] | CC#CC1(NC(=C(C#N)C(=O)OCC)c2cccnc2Cl)CCCCC1 [Compound 1430]
25 | 3.69^[a] | CCOCC(NC(=C(C#N)C(=O)OCC)c1cccnc1Cl)C(C)C (centres unmarked) [Compound 1431]
26 | 2.96^[a] | CCOC(=O)C(C#N)=C(NC1CCCC1OC)c1cccnc1Cl (centres unmarked) [Compound 1432]
27 | 3.8^[a] | CCCC(CC)NC(=C(C#N)C(=O)OCC)c1cccnc1Cl (centres unmarked) [Compound 1434]
28 | 2.4^[a] | CCOC(=O)C(C#N)=C(NC1CCc2cccnc21)c1cccnc1Cl (centres unmarked) [Compound 1436]
29 | 2.8^[a] | CCOC(=O)C(C#N)=C(NC(C)c1ccc(Cl)nc1)c1cccnc1Cl (centres unmarked) [Compound 1437]
30 | 3.2^[a] | CCOC(=O)C(C#N)=C(NC(C)c1cccc(Cl)n1)c1cccnc1Cl (centres unmarked) [Compound 1439]
31 | 3.37^[a] | CCOC(=O)C(C#N)=C(NC(C)c1ccc2ccccc2n1)c1cccnc1Cl (centres unmarked) [Compound 1441]
32 | 3.1^[a] | CCOC(=O)C(C#N)=C(NC(C)c1cnc(Cl)s1)c1cccnc1Cl (centres unmarked) [Compound 1444]
33 | 4^[a] | CCOC(=O)C(C#N)=C(NC(C)c1csc(-c2ccccc2)n1)c1cccnc1Cl (centres unmarked) [Compound 1447]
34 | 2.59^[a] | CCOC(=O)C(C#N)=C(NC(C)c1nccs1)c1scnc1Cl (centres unmarked) [Compound 1463]
35 | 3^[a] | CCOC(=O)C(C#N)=C(NC1CCC1)c1scnc1Cl [Compound 1465]
36 | 3.87^[a] | CCSC(=O)C(C#N)=C(NC(C)C(C)C)c1cccnc1Cl (centres unmarked) [Compound 1474]
37 | 1.81^[a] | CCOC(=O)C(C#N)=C(NC(C)C(=O)NC)c1scnc1Cl (centres unmarked) [Compound 1476]

Row | Log P | Compound
38 | 4^[a] | CCOC(=O)C(C#N)=C(NC(C)c1c(Cl)cccc1Cl)c1scnc1Cl (centres unmarked) [Compound 1477]
39 | 1.94^[a] | CCOC(=O)C(C#N)=C(NCc1ccc(C)c(C)n1)c1scnc1Cl [Compound 1478]
40 | 1.01^[a] | CC(NC(=C(C#N)C(=O)O)c1cccnc1Cl)c1nccs1 (centres unmarked) [Compound 1479]
41 | 2.98^[a] | CCOC(=O)C(C#N)=C(NC(C)C1CC1)c1cnn(C)c1Cl (centres unmarked) [Compound 1482]
42 | 3.25^[a] | CCOC(=O)C(C#N)=C(NC(C)C(C)C)c1cnn(C)c1Cl (centres unmarked) [Compound 1485]
43 | 2.42^[a] | CCOC(=O)C(C#N)=C(NC(C)COC)c1cnn(C)c1Cl (centres unmarked) [Compound 1486]
44 | 2.82^[a] | CCOC(=O)C(C#N)=C(NC1CCC1)c1cnn(C)c1Cl [Compound 1487]
45 | 1.63^[a] | CCOC(=O)C(C#N)=C(NC(C)C(=O)NC)c1cnn(C)c1Cl (centres unmarked) [Compound 1488]
46 | 2.62^[a] | C=CCOC(=O)C(C#N)=C(NC(C)c1nccs1)c1cccnc1Cl (centres unmarked) [Compound 1490]
47 | 2.73^[a] | COCCNC(=O)C(C#N)=C(NC(C)C(C)C)c1cccnc1Cl (centres unmarked) [Compound 1492]
48 | 3.9^[a] | CC(C)C(C)NC(=C(C#N)C(=O)NC1CCCC1)c1cccnc1Cl (centres unmarked) [Compound 1493]
49 | 3.74^[a] | CC(C)CNC(=O)C(C#N)=C(NC(C)C(C)C)c1cccnc1Cl (centres unmarked) [Compound 1494]
50 | 3.29^[a] | CCOC(=O)C(C#N)=C(NC(C)C(C)C)c1ccnc2ccccc12 (centres unmarked) [Compound 1496]
51 | 2.88^[a] | CCOC(=O)C(C#N)=C(NC1CCC1)c1ccnc2ccccc12 [Compound 1498]
52 | 2.5^[a] | CCOC(=O)C(C#N)=C(NC(C)COC)c1ccnc2ccccc12 (centres unmarked) [Compound 1499]
53 | 2.42^[a] | CCOC(=O)C(C#N)=C(NC(C)c1nccs1)c1cnn(C)c1Cl (centres unmarked) [Compound 1501]
54 | 2.5^[a] | CCOC(=O)C(C#N)=C(NC(C)c1nccs1)c1ccnc2ccccc12 (centres unmarked) [Compound 1502]
55 | 1.8^[a] | CCOC(=O)C(C#N)=C(NC(C)C(=O)NC)c1ccnc2ccccc12 (centres unmarked) [Compound 1503]
56 | 3.27^[a] | CC(C)C(C)NC(=C(C#N)C(=O)N1CCSCC1)c1cccnc1Cl (centres unmarked) [Compound 1507]
57 | 3.48^[a] | CC(C)C(C)NC(=C(C#N)C(=O)N1CCCCC1)c1cccnc1Cl (centres unmarked) [Compound 1508]
58 | 3.29^[a] | CSCCNC(=O)C(C#N)=C(NC(C)C(C)C)c1cccnc1Cl (centres unmarked) [Compound 1510]
59 | 4.01^[a] | CC(C)C(C)NC(=C(C#N)C(=O)NC1CCC1C)c1cccnc1Cl (centres unmarked) [Compound 1511]
60 | 4.01^[a] | CC1CC(NC(=O)C(C#N)=C(NC(C)C(C)C)c2cccnc2Cl)C1 (centres unmarked) [Compound 1512]

Row | Compound | Log P
61 | CCOC(=O)C(C#N)=C(NC(C)(C)C)c1cn(C)nc1C(F)F [Compound 1418] | 2.66^[a]
62 | CCOC(=O)C(C#N)=C(NC(C)C)c1cn(C)nc1C(F)F [Compound 1419] | 2.53^[a]
63 | CCOC(=O)C(C#N)=C(NC(C)(C)CC)c1cccnc1Cl [Compound 1425] | 3.23^[a]
64 | CCOC(=O)C(C#N)=C(NC(C)c1cccc(OC)n1)c1cccnc1Cl (centres unmarked) [Compound 1438] | 3.5^[a]
65 | CCOC(=O)C(C#N)=C(NC(C)c1cccc(C)n1)c1cccnc1Cl (centres unmarked) [Compound 1440] | 2.56^[a]
66 | CCOC(=O)C(C#N)=C(NC(C)c1cc(C)ccn1)c1cccnc1Cl (centres unmarked) [Compound 1442] | 2.6^[a]
67 | CCOC(=O)C(C#N)=C(NC(C)c1ccc(Cl)cn1)c1cccnc1Cl (centres unmarked) [Compound 1445] | 3.3^[a]
68 | CCOC(=O)C(C#N)=C(NC(C)c1cc(Cl)cc(C)n1)c1cccnc1Cl (centres unmarked) [Compound 1446] | 3.4^[a]
69 | CCOC(=O)C(C#N)=C(NC(C)c1ncccc1SC)c1cccnc1Cl (centres unmarked) [Compound 1448] | 3.1^[a]
70 | CCOC(=O)C(C#N)=C(NC(C)c1cc(Cl)ccn1)c1cccnc1Cl (centres unmarked) [Compound 1449] | 3^[a]
71 | CCOC(=O)C(C#N)=C(NC(C)c1ccccn1)c1scnc1Cl (centres unmarked) [Compound 1462] | 2.59^[a]
72 | CCOC(=O)C(C#N)=C(NC(C)C1CC1)c1scnc1Cl (centres unmarked) [Compound 1466] | 2.02^[a]
73 | CCOC(=O)C(C#N)=C(NC(C)COC)c1scnc1Cl (centres unmarked) [Compound 1467] | 2.61^[a]
74 | CCOC(=O)C(C#N)=C(NC(C)C(C)C)c1scnc1Cl (centres unmarked) [Compound 1468] | 3.46^[a]
75 | CCSC(=O)C(C#N)=C(NC(C)c1nccs1)c1cccnc1Cl (centres unmarked) [Compound 1489] | 2.9^[a]
76 | CC(C)C(C)NC(=C(C#N)C(=O)N1CCCC1)c1cccnc1Cl (centres unmarked) [Compound 1491] | 3.02^[a]
77 | CC(C)C(C)NC(=C(C#N)C(=O)N1CCSC1)c1cccnc1Cl (centres unmarked) [Compound 1509] | 3.19^[a]

same assay, conditions: pH 7.5

Row | Log P | Compound
78 | 3.16 | C=CCOC(=O)C(C#N)=C(NC(C)c1nccs1)c1ccc(Cl)nc1Cl (centres unmarked) [Compound 1450]
79 | 2.76 | CC(C)C(C)NC(=C(C#N)C(=O)NC1CC1)c1cccnc1Cl (centres unmarked) [Compound 1451]
80 | 3.22^[c]; 3.22^[b] | CC(C)C(C)NC(=C(C#N)C(=O)NC1CSC1)c1cccnc1Cl (centres unmarked) [Compound 1452]
81 | 3.44^[c]; 3.44^[b] | CC(C)C(C)NC(=C(C#N)C(=O)NC1CCC1)c1cccnc1Cl (centres unmarked) [Compound 1453]
82 | 2.26 | CC(C)C(C)NC(=C(C#N)C(=O)NC1COC1)c1cccnc1Cl (centres unmarked) [Compound 1455]
83 | 2.83^[c]; 2.83^[b] | CC(C)C(C)NC(=C(C#N)C(=O)NC1CC1F)c1cccnc1Cl (centres unmarked) [Compound 1456]
84 | 4.25 | CCOC(=O)C(C#N)=C(NC(C)C(C)C)c1cccnc1-c1ccc(C(F)(F)F)cc1 (centres unmarked) [Compound 1457]
85 | 1.94 | CONC(=O)C(C#N)=C(NC(C)c1nccs1)c1ccc(Cl)nc1Cl (centres unmarked) [Compound 1459]
86 | 2.62 | C=CCONC(=O)C(C#N)=C(NC(C)C(C)C)c1cccnc1Cl (centres unmarked) [Compound 1461]
87 | 2.29 | CC(C)C(C)NC(=C(C#N)C(=O)NC1CS(=O)(=O)C1)c1cccnc1Cl (centres unmarked) [Compound 1469]
88 | 3.59 | CCOC(=O)C(C#N)=C(NC(C)C(C)C)c1cccnc1-c1ccc(OC)cc1 (centres unmarked) [Compound 1472]
89 | 3.7^[c]; 3.7^[b] | CCOC(=O)C(C#N)=C(NC(C)C(C)C)c1cccnc1-c1cccs1 (centres unmarked) [Compound 1505]

Row | Compound | Log P
90 | CCOC(=O)C(C#N)=C(NC(C)C=NO)c1cccnc1Cl (centres unmarked) [Compound 1443] | 1.78
91 | CCONC(=O)C(C#N)=C(NC(C)C(C)C)c1cccnc1Cl (centres unmarked) [Compound 1454] | 2.44^[c]; 2.44^[b]
92 | C=CCNC(=O)C(C#N)=C(NC(C)C(C)C)c1cccnc1Cl (centres unmarked) [Compound 1458] | 3^[c]; 3^[b]
93 | CNC(=O)C(C#N)=C(NC(C)c1nccs1)c1ccc(Cl)nc1Cl (centres unmarked) [Compound 1460] | 2.29
94 | CCNC(=O)C(C#N)=C(NC(C)c1nccs1)c1ccc(Cl)nc1Cl (centres unmarked) [Compound 1471] | 2.65
95 | CCOC(=O)C(C#N)=C(NC(C)C(C)C)c1cccnc1 (centres unmarked) [Compound 1504] | 2.67
